Results reported in a melting point compilation (Tetko et al.; mined from patent text by program, amines drawn as free bases though some values may be those of a salt).

Structure (SMILES) | melting point [°C]
O=C1NC(=Cc2c[nH]c3ccccc23)C(=O)N1Cc1cc(C(F)(F)F)cc(C(F)(F)F)c1 | 151 to 153
OC(c1ccccc1)c1ccccc1CNC(=S)NCCc1ccccc1 (centres undefined) | 117 to 119
Nc1cccc2cnc(Cl)cc12 | 176 to 177
O=[N+]([O-])c1ccc(N(CCO)CCO)cc1F | 99 to 101
CCC12CCC3c4ccc(OC)cc4CCC3C1CC(=CN(C)C)C2=O (centres undefined) | 157 to 159
N#CC1Cc2cc3c(cc21)NCC3 (centres undefined) | 85 to 87
CC(C)c1cccc(C(C)C)c1NC(=O)[C@H](C)N(C)C(=O)OC(C)(C)C | 108 to 110
COc1ccc(C#Cc2ccc(OC3CN4CCC3CC4)cc2)cc1 (centres undefined) | 112 to 115
N#CC(C#N)=Cc1ccc(O)c(O)c1 | 225
O=C1NCCC12CCCN2Cc1ccccc1 (centres undefined) | 152 to 153
C=CCc1cc(C=CC(=O)O)ccc1OC(C)=O | 143 to 144
CCCCCCCCc1ccccc1CCC(NC(C)=O)(C(=O)OCC)C(=O)OCC | 37 to 38
CSC(=S)N1C(CO)Cc2c([nH]c3ccccc23)C1C (centres undefined) | 153 to 156
O=C(CC1c2ccccc2S(=O)(=O)C1c1ccccc1)NO (centres undefined) | 113 to 114
CC(=O)NC1C(Cl)OC(COC(C)=O)C(OC(C)=O)C1OC(C)=O (centres undefined) | 143
COc1ccnc(CSc2nc3cscc3[nH]2)c1 | 172 to 175
O=C1C=C(NCc2ccccc2I)CCN1 | 163 to 164
COc1ccc2[nH]c(C)c(C(C)=O)c2c1 | 156 to 158
CCOC(=O)C=Cc1ccc(CCNS(=O)(=O)C=Cc2ccc(Cl)cc2)cc1 | 131 to 132
CS(=O)(=O)c1ccc(-c2cnn(-c3ccc(Cl)s3)c(=O)c2-c2ccc(Cl)cc2)cc1 | 249 to 251
CCN(CC)CCNC(=O)c1cc(Cl)c(N)cc1OCCOC(C)=O | 101 to 102
CCOC(=O)c1ccc(CCc2coc(N)c2C#N)cc1 | 195 to 197
CCOC(=O)c1c(N)cc(C(F)(F)F)nc1C(F)(F)F | 43 to 45
O=C(CCC(O)c1ccc(CCNS(=O)(=O)c2ccc(Cl)cc2)cc1)Nc1nnn[nH]1 (centres undefined) | 194 to 196
Nc1ncccc1OCc1cc2c(cc1Cl)OCO2 | 100 to 104
CC(C)(C)OC(=O)NCCNC(=O)c1ncccc1Br | 125 to 130

Structure (SMILES) | melting point [°C]
O=[N+]([O-])c1ccc2c(c1)C(N1CCCC1)C(O)CC2 (centres undefined) | 77
CCOC(=O)c1c(N)c(C)nn1C | 55.5 to 56.5
OC(COc1ccccc1-n1cccc1)CN1CCOCC1 (centres undefined) | 81 to 82
CC12CCC(=O)NC1=CCc1ccccc12 (centres undefined) | 123 to 124
CCOc1cc2nc(S(C)(=O)=O)[nH]c2cc1OCC | 182 to 184
NNC1=NS(=O)(=O)c2cnccc2N1 | 290 to 292
CC(C)(C)OC(=O)NC(Cc1ccccc1)C(O)CNCC(O)C(CCc1ccccc1)NC(=O)OCc1ccccc1 (centres undefined) | 150 to 151
CCc1nnc(-c2ncc3[nH]c4cccc(OCc5ccccc5)c4c3c2COC)o1 | 230
CCSC(NC(C)=O)C(=O)NCc1ccccc1 (centres undefined) | 146 to 148
CNc1ncnc2c(NC3OC(CO)C(O)C3O)ncnc12 (centres undefined) | 230
CCOC(=O)C(CCC#N)(C(=O)OCC)c1ncc([N+](=O)[O-])cc1C | 64 to 65.5
Cc1onc(OC2CN3CCC2CC3)c1Cl (centres undefined) | 37 to 38
ClCc1cc2ccccc2c(-c2ccccc2)c1CCl | 93
O=C(Nc1nc(C(Cl)(Cl)Cl)ns1)c1cc([N+](=O)[O-])cc([N+](=O)[O-])c1 | 197
COc1ccc(OC)c(C(=O)Cl)c1 | 36 to 38
O=S(c1ccccc1)c1ncc(Cl)cn1 (centres undefined) | 115
N#Cc1nn(-c2c(Cl)cc(C(F)(F)F)cc2Cl)c(N)c1C1C=CCCCC1 (centres undefined) | 158 to 159
O=C1c2ccccc2C(=O)N1CCCCCSc1ccccc1 | 87 to 88
CCS(=O)(=O)NC1CCCCc2ccc(F)cc21 (centres undefined) | 118 to 121
C=CCN(CC=C)C(=O)n1cnc(S(=O)(=O)CCOCC)n1 | 62 to 63
O=C(NCc1ccccc1)c1ccccc1-c1ccccc1CNS(=O)(=O)c1cccc([N+](=O)[O-])c1 | 175
CNC(=O)c1c(NC(=O)CBr)c(OC)c(C(=O)NC)c(NC(=O)CBr)c1OC | 308 to 310
CC(C)(C)OC(=O)N(CC=Cc1ccccc1)S(N)(=O)=O | 118
O=c1ccc(C(F)(F)F)cn1Cc1c(Cl)cccc1Cl | 74 to 76
COCC#Cc1ncn2c1CN(C)C(=O)c1c(Cl)cccc1-2 | 154 to 156

Second part, the molecule after the results:

melting point [°C] | Structure (SMILES)
239 to 240 | O=C(O)c1ccc(-c2nnn[nH]2)cc1Sc1ccccc1
123 to 124 | CCOC(=O)N1CCN(c2ncnc3c2cnn3Cc2ccncc2)CC1
120 to 121 | Nc1cc(F)ccc1C(=O)NCc1ccc(Br)cc1F
116 to 119 | CC(=O)NCCC1CCc2c(F)cc3nn(C)cc3c21 (centres undefined)
80 | CCCCCCCOc1ccc2c(c1)N(CCCN1CCC(CCO)CC1)c1cccc(S(=O)(=O)N(C)C)c1S2
159 to 160 | Nc1ncc2c(n1)-c1ccccc1C(c1ccc(Cl)c(Cl)c1)C2 (centres undefined)
215 to 218 | COc1cc2c(Nc3ccc(Cl)cc3F)ncnc2cc1OCc1ccccn1
264 | Cn1ncc(C(=O)N2CCC2)c1C(=O)Nc1ccn2nc(-c3cccc(F)n3)nc2c1
115 to 116 | CCCCc1nc2c(C)cccc2n1Cc1ccc([N+](=O)[O-])cc1
90 to 91 | CNc1c(C(=O)OC)c(C)nc2c1c1ccccc1n2C
133 to 134 | CCOc1nn(Cc2ccc(OCc3nc(-c4ccco4)oc3C)c(OC)c2)cc1CCC(=O)O
158 to 160 | CCCCNC(=O)Nc1cccc(-c2ccnc3c(C(=O)c4cccs4)cnn23)c1
180 to 182 | O=C1NCCN1c1ccc(S(=O)(=O)Nc2cccc(Cl)c2)cc1
142 to 144 | CCCOCCOc1ccc(-c2ccc3c(c2)C=C(C(=O)O)CCCN3CC(C)C)cc1
100 to 102 | CC(CC(=O)c1cccc(Cl)c1)C(=O)O (centres undefined)
214 | CCN1CCN(CCN2CC[C@H](NC(=O)c3cc(Cl)c(N)cc3OC)[C@H](OC(=O)N3CCCC3)C2)C1=O (relative stereo)
176 to 180 | CCCCc1nc2c(n1Cc1ccc(C(=O)OC)cc1)C[C@@H](C(=O)O)N(C(=O)C(c1ccccc1)c1ccccc1)C2
84 to 85 | COc1ccc(C(OC2CCN(CC(=O)O)CC2)c2ccccc2)cc1 (centres undefined)
180 to 183 | N#Cc1cc(O)cc2nc(-c3ccc(O)cc3)oc12
90 to 92 | O=C(c1cccs1)C(O)c1ccc(F)cc1 (centres undefined)
188 | CCOC(=O)c1c(N2CCN(C)CC2)c2cc(C)ccc2n(-c2ccccc2)c1=O
40 to 42 | COC(=O)c1ccc(CC(=O)c2ccccc2Cl)cc1
183 to 186 | CCCCCCCCCCCCCCCCOc1ccc(OCC(=O)Nc2cccc(CBr)c2)cc1
154 to 156 | COC(=O)c1c(N)ncn1-c1c(C)cccc1C
157 to 159 | Cc1oc(-c2ccccc2)nc1CCOc1cccc2c1ccn2C(C)C(=O)O (centres undefined)
227 to 229 | CC(=O)Nc1cccc2c(Br)ccc(C)c12
130 to 131 | COC(=O)c1cc(OC)c(N(C)C(=O)OCc2ccccc2)c(OC)c1

melting point [°C] | Structure (SMILES)
108 | CCOC(=O)c1nn(-c2ccc(Cl)cc2Cl)c(-c2ccc(Br)cc2)c1CC
116 | CC(=O)c1ccccc1NC(c1c(Cl)cccc1Cl)C1CC1 (centres undefined)
232 to 233 | O=c1nc(-c2ccc3c(n2)CCCC3)sc2ccccc12
267 to 269 | CCOC(=O)c1cnc(Nc2ccccc2)[nH]c1=O
275 to 276 | CCCCn1c(=O)c2cc(C(=O)O)cn2c2cc(Cl)ccc21
265 to 266 | O=C(Nc1ccc(CP(=O)(O)O)cc1)c1cc(=O)c2ccccc2o1
236 | NC(=O)CCc1cccc(-c2nc(=O)c3ccccc3s2)n1
173 to 175 | NS(=O)(=O)c1ccc(-c2cnn(CC(F)=C(F)F)c(=O)c2-c2ccc(F)cc2)cc1
170 to 171 | Nc1ccc(CNc2n[nH]c3ncnc(Nc4cccc(Cl)c4)c23)cc1
155 to 157 | c1ccc(CCN2CCC(c3cc(-c4ccccn4)[nH]n3)CC2)cc1
154 to 155 | OC1CCCc2nc3ccccc3c(NCc3cccc(C(F)(F)F)c3)c21 (centres undefined)
76.5 to 77.5 | COC(=O)c1cccc2c1CCC2C#N (centres undefined)
113 to 115 | COc1c(-c2ccc(S(C)(=O)=O)cc2)cnn(-c2ccc(F)c(F)c2)c1=O
93 to 95 | COc1ccc(CNC(=O)c2nccnc2N)cc1
304 to 306 | O=C1CC(c2ccccc2O)=Nc2ccc(N3CCCC3)cc21
271 to 273 | O=C(O)c1c[nH]c2nc(Cl)ccc2c1=O
157 to 160 | CC(C)(O)Cn1c(CO)nc2c(N)nc3cc(-c4cccc(C(=O)N5CCCC5)c4)cnc3c21
149 to 151 | CC(=O)Oc1ccc2ncnc(Nc3ccc(OCc4ccccn4)c(C)c3)c2c1
130 to 131 | COC(=O)c1c(C)nc2c(c1N)c1c(n2Cc2ccc(OC)cc2)CCCC1
190 to 192 | CCOC(=O)N1N=C(c2ccc(N)cc2)c2cc(Cl)c(Cl)cc2CC1C (centres undefined)
143 to 145 | COc1ccc2c(c1)c(CCO)c(C)n2-c1ccnc2cc(Cl)ccc12
136 to 138 | CSc1ccc(C=C(C(=O)O)c2ccc(F)cc2)cc1
222 to 223 | CC(C)(C)c1ccc(C(=O)Nc2cn3nc(NCc4ccncc4)ccc3n2)cc1
226 to 229 | CC(C(=O)O)n1c(-c2ccc(Cl)cc2)nc2cccnc21 (centres undefined)
116 to 158 | Cc1c(C(N)=O)oc2c(C(=O)NCCCN3CCN(c4cc(Cl)ccc4O)CC3)cccc2c1=O
266 | O=c1[nH]c2c(Cl)ncnc2n1CCN1CCC(Nc2nc3ccccc3n2Cc2ccc(F)cc2)CC1
